Laboratory results published in ChEMBL document CHEMBL1132959, “Design of potent dicyclic (1-5/4-10) gonadotropin releasing hormone (GnRH) antagonists” (J Med Chem, 2000).
One block for each molecule: values may come before it. Bridge positions count the residues as written; N and C are the ends. Square brackets hold non-standard residues; d marks the D form. Peptide text beside a SMILES is read from it. dPhe(4-F) = N[C@H](Cc1ccc(F)cc1)C(=O)O; d2Nal = N[C@H](Cc1ccc2ccccc2c1)C(=O)O; ΔPro = O=C(O)[C@@H]1C=CCN1; Dap = NC[C@H](N)C(=O)O

Columns and labels:
[1] = molecular target: T1, Gonadotropin-releasing hormone receptor (Rattus norvegicus, UniProt P30969); test: Affinity for rat gonadotrophin releasing hormone (GnRH) receptor using HEK293 cells transfected with rat Gonadotropin-releasing hormone receptor; type: cell-based; settings: hek293
T1 sequence (P30969 whole entry): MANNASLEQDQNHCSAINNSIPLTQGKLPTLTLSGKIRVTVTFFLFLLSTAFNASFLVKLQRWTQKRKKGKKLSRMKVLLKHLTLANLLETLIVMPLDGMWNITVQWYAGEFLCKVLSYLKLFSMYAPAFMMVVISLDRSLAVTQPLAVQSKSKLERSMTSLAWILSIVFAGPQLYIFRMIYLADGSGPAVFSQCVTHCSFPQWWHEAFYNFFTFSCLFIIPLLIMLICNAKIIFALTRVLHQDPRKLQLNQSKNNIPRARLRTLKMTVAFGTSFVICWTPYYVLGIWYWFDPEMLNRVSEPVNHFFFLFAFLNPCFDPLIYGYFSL

Rattus norvegicus [2] = organism: Rattus norvegicus; test: Antiovulatory potency at 25 ug/rat expressed as rats ovulating by total no. of rats (2/4); type: functional
Rattus norvegicus [3] = organism: Rattus norvegicus; test: Antiovulatory potency at 10 ug/rat expressed as rats ovulating by total no. of rats (0/5); type: functional
Rattus norvegicus [4] = organism: Rattus norvegicus; test: Antiovulatory potency at 50 ug/rat expressed as rats ovulating by total no. of rats (3/3); type: functional
Rattus norvegicus [5] = organism: Rattus norvegicus; test: Antiovulatory potency at 5 ug/rat expressed as rats ovulating by total no. of rats (2/3); type: functional
Rattus norvegicus [6] = organism: Rattus norvegicus; test: Antiovulatory potency at 10 ug/rat expressed as rats ovulating by total no. of rats (5/6); type: functional
Rattus norvegicus [7] = organism: Rattus norvegicus; test: Antiovulatory potency at 25 ug/rat expressed as rats ovulating by total no. of rats (7/8); type: functional
Rattus norvegicus [8] = organism: Rattus norvegicus; test: Antiovulatory potency at 50 ug/rat expressed as rats ovulating by total no. of rats (0/6); type: functional
Rattus norvegicus [9] = organism: Rattus norvegicus; test: Antiovulatory potency at 10 ug/rat expressed as rats ovulating by total no. of rats (0/10); type: functional
Rattus norvegicus [10] = organism: Rattus norvegicus; test: Antiovulatory potency at 5 ug/rat expressed as rats ovulating by total no. of rats (4/10); type: functional
Rattus norvegicus [11] = organism: Rattus norvegicus; test: Antiovulatory potency at 25 ug/rat expressed as rats ovulating by total no. of rats (4/8); type: functional
Rattus norvegicus [12] = organism: Rattus norvegicus; test: Antiovulatory potency at 10 ug/rat expressed as rats ovulating by total no. of rats (4/4); type: functional
Rattus norvegicus [13] = organism: Rattus norvegicus; test: Antiovulatory potency at 5 ug/rat expressed as rats ovulating by total no. of rats (2/8); type: functional
Rattus norvegicus [14] = organism: Rattus norvegicus; test: Antiovulatory potency at 25 ug/rat expressed as rats ovulating by total no. of rats (0/3); type: functional
Rattus norvegicus [15] = organism: Rattus norvegicus; test: Antiovulatory potency at 10 ug/rat expressed as rats ovulating by total no. of rats (1/6); type: functional
Rattus norvegicus [16] = organism: Rattus norvegicus; test: Antiovulatory potency at 100 ug/rat expressed as rats ovulating by total no. of rats (2/6); type: functional
Rattus norvegicus [17] = organism: Rattus norvegicus; test: Antiovulatory potency at 250 ug/rat expressed as rats ovulating by total no. of rats (3/6); type: functional
Rattus norvegicus [18] = organism: Rattus norvegicus; test: Antiovulatory potency at 100 ug/rat expressed as rats ovulating by total no. of rats (7/12); type: functional
Rattus norvegicus [19] = organism: Rattus norvegicus; test: Antiovulatory potency at 5 ug/rat expressed as rats ovulating by total no. of rats (1/8); type: functional
Rattus norvegicus [20] = organism: Rattus norvegicus; test: Antiovulatory potency at 2.5 ug/rat expressed as rats ovulating by total no. of rats (0/5); type: functional

Ki [1]: 0.22 nM
SMILES: CC(=O)N[C@@H]1CCC(=O)N[C@H](C)C(=O)NCC[C@H]2NC(=O)[C@@H](CC(=O)NC[C@H](C(N)=O)NC(=O)[C@H]3CCCN3C(=O)[C@H](CCCN=C(N)N)NC(=O)[C@@H](CC(C)C)NC(=O)[C@@H](Cc3ccc4ccccc4c3)NC2=O)NC(=O)[C@@H](Cc2c[nH]c3ccccc23)NC(=O)[C@H](Cc2ccc(Cl)cc2)NC1=O
Ovulating rats (Rattus norvegicus [2]): 2 | Ovulating rats (Rattus norvegicus [3]): 0

Ki [1]: 1.1 nM
SMILES: CC(=O)N[C@@H]1CCC(=O)NCC(=O)NCCC[C@H]2NC(=O)[C@@H](CC(=O)NC[C@H](C(N)=O)NC(=O)[C@H]3CCCN3C(=O)[C@H](CCCN=C(N)N)NC(=O)[C@@H](CC(C)C)NC(=O)[C@@H](Cc3ccc4ccccc4c3)NC2=O)NC(=O)[C@@H](Cc2c[nH]c3ccccc23)NC(=O)[C@H](Cc2ccc(Cl)cc2)NC1=O
Ovulating rats (Rattus norvegicus [6]): 5 | Ovulating rats (Rattus norvegicus [7]): 7 | Ovulating rats (Rattus norvegicus [8]): 0

Ki [1]: 0.86 nM
SMILES: CC(=O)N[C@@H]1CCC(=O)NCCC[C@H]2NC(=O)[C@@H](CC(=O)NC[C@H](C(N)=O)NC(=O)[C@H]3CCCN3C(=O)[C@H](CCCN=C(N)N)NC(=O)[C@@H](CC(C)C)NC(=O)[C@@H](Cc3ccc4ccccc4c3)NC2=O)NC(=O)[C@@H](Cc2c[nH]c3ccccc23)NC(=O)[C@H](Cc2ccc(Cl)cc2)NC1=O
Ovulating rats (Rattus norvegicus [11]): 4 | Ovulating rats (Rattus norvegicus [12]): 4

Ki [1]: 5.7 nM
SMILES: CC(=O)N[C@@H]1CSSC[C@H]2NC(=O)[C@@H](CC(=O)NC[C@H](C(N)=O)NC(=O)[C@H]3CCCN3C(=O)[C@H](CCCN=C(N)N)NC(=O)[C@@H](CC(C)C)NC(=O)[C@H](Cc3ccc4ccccc4c3)NC2=O)NC(=O)[C@@H](Cc2c[nH]c3ccccc23)NC(=O)[C@H](Cc2ccc(Cl)cc2)NC1=O
Ovulating rats (Rattus norvegicus [18]): 7

Ki [1]: 0.15 nM
SMILES: CC(=O)N[C@@H]1CC(=O)NCCC(=O)NCC[C@H]2NC(=O)[C@@H](CC(=O)NC[C@H](C(N)=O)NC(=O)[C@H]3CCCN3C(=O)[C@H](CCCN=C(N)N)NC(=O)[C@@H](CC(C)C)NC(=O)[C@@H](Cc3ccc4ccccc4c3)NC2=O)NC(=O)[C@@H](Cc2c[nH]c3ccccc23)NC(=O)[C@H](Cc2ccc(Cl)cc2)NC1=O
Ovulating rats (Rattus norvegicus [19]): 1 | Ovulating rats (Rattus norvegicus [20]): 0

Continued, molecule first:

SMILES: CC(=O)N[C@@H]1CCC(=O)NCC(=O)NCC[C@H]2NC(=O)[C@@H](CC(=O)NC[C@H](C(N)=O)NC(=O)[C@H]3CCCN3C(=O)[C@H](CCCN=C(N)N)NC(=O)[C@@H](CC(C)C)NC(=O)[C@@H](CCCN=C(N)N)NC2=O)NC(=O)[C@@H](Cc2c[nH]c3ccccc23)NC(=O)[C@H](Cc2ccc(Cl)cc2)NC1=O
Ki [1]: 17 nM | Ovulating rats (Rattus norvegicus [4]): 3 | Ovulating rats (Rattus norvegicus [5]): 2

SMILES: CC(=O)N1CC=C[C@H]1C(=O)N[C@H](Cc1ccc(F)cc1)C(=O)N[C@H](Cc1c[nH]c2ccccc12)C(=O)N[C@H]1CC(=O)NC[C@@H](C(N)=O)NC(=O)[C@@H]2CCCN2C(=O)[C@H](CCCN=C(N)N)NC(=O)[C@H](CC(C)C)NC(=O)[C@@H](Cc2ccc3ccccc3c2)NC(=O)[C@H](Cc2ccc(O)cc2)NC1=O (Ac-[ΔPro][dPhe(4-F)][dW]DY[d2Nal]LRP[Dap]-NH2; lactam 4-10)
Ovulating rats (Rattus norvegicus [9]): 0 | Ovulating rats (Rattus norvegicus [10]): 4

SMILES: CC(=O)N[C@H](Cc1ccc2ccccc2c1)C(=O)N[C@H](Cc1ccc(F)cc1)C(=O)N[C@H](Cc1cccnc1)C(=O)N[C@H]1CC(=O)NC[C@@H](C(N)=O)NC(=O)[C@@H]2CCCN2C(=O)[C@@H]2CCNC(=O)CNC(=O)CC[C@H](NC1=O)C(=O)N[C@H](CCCN=C(N)N)C(=O)N[C@@H](CC(C)C)C(=O)N2
Ovulating rats (Rattus norvegicus [13]): 2 | Ovulating rats (Rattus norvegicus [14]): 0 | Ovulating rats (Rattus norvegicus [15]): 1

SMILES: CC(=O)N[C@@H]1CCC(=O)NCCCC[C@@H]2NC(=O)[C@H](CC(C)C)NC(=O)[C@@H](Cc3ccc4ccccc4c3)NC(=O)[C@H](CCCN=C(N)N)NC(=O)[C@H](CC(=O)NC[C@H](C(N)=O)NC(=O)[C@@H]3CCCN3C2=O)NC(=O)[C@@H](Cc2cccnc2)NC(=O)[C@H](Cc2ccc(Cl)cc2)NC1=O
Ki [1]: 1.8 nM | Ovulating rats (Rattus norvegicus [16]): 2 | Ovulating rats (Rattus norvegicus [17]): 3
